Laboratory results: US8921416B2, “Dronedarone solid dispersion and preparation method thereof” (Jiangsu Hengrui Medicine Co., Ltd., priority 2010, dated 2014)
Structures can show the parent of a compound that is named as a salt.

Key:
[1] = 24 h solubility of solid dispersions in PBS pH6.8; format: physicochemical; details: 37 °C, pH 6.8, aqueous buffer, thermodynamic from solid
Method: The weight ratio of the drug to the carrier was 1:5. Different hydrophilic polymeric carrier materials were selected from the group consisting of polyethylene glycol 6000, poloxamer 188, PVP K30, Klucel® EF, Plasdone® S-630, mannitol and combinations thereof respectively. 12 parts by weight of dichloromathane were added into the drug and carrier mixture, and was dissolved by stirring. Then the solution was transferred to a vacuum oven, maintained at 55° C., dried under reduced pressure for 48 h. Then the dry mass was crushed with a 100 mesh sieve, thereby the solid dispersion of dronedarone was obtained. The solubilities of the solid dispersion in the phosphate buffered saline (PBS) at pH6.8 were measured as follows.
24 h Solubility Determination: aliquots of the prepared solid dispersion were added into a 100 ml conical flask respectively. Then 50 ml PBS pH6.8 were added. The conical flask was sealed and placed in a thermostatic waterbath shaker and shaked at a set temperature of 37° C. for 24 h. After 24 hours, 10 mL of the solution were taken and filtrated. The initial 4 mL of the filtrate were abandoned and the subsequent filtrate were taken and diluted with PBS pH6.8 to a corresponding folds. The UV absorbance at 290 nm was measured with a UV spectrophotometer. Then the drug solubilities were calculated.

[2] = pH=7; cited from earlier work

Row | Compound | solubility at 24 h [1] | solubility in an aqueous solution [2]
1 | CCCCc1oc2ccc(NS(C)(=O)=O)cc2c1C(=O)c1ccc(OCCCN(CCCC)CCCC)cc1 [Dronedarone hydrochloride] | 12 µg/mL | 
2 | CCCCc1oc2ccc(NS(C)(=O)=O)cc2c1C(=O)c1ccc(OCCCN(CCCC)CCCC)cc1 [dronedarone, N-(2-Butyl-3-(4-(3-(dibutylamino)propoxy)benzoyl)-5-benzofuranyl)methanesulfonamide] |  | about 10 μg/ml
